From patent US20250034159A1, “INHIBITORS OF EPIDERMAL GROWTH FACTOR RECEPTOR” (ORIC Pharmaceuticals, Inc., priority 2021, published 2025)
Read-outs that look alike come from different tables or passages of the source.

Tests used:
BaF3_EGFR d19/CS cells = assay: Biological Activity Assay D: BaF3 cell proliferation assay, EGFR exon 19 deletion/C797S (BaF3 d19/CS); type: cell-based; details: Ba/F3 EGFR, read-out: BaF3 d19/CS IC50
BaF3_EGFR LR/CS cells = assay: Biological Activity Assay D: BaF3 cell proliferation assay, EGFR L858R/C797S mutant (BaF3 LR/CS); type: cell-based; details: Ba/F3 EGFR, read-out: BaF3 LR/CS IC50
[1] = biological target: recombinant human EGFR exon 19 deletion/C797S double mutant protein (Homo sapiens (Human), UniProt P00533, C797S/DEL746-750); assay: Biological Activity Assay C: biochemical assay against EGFR exon 19 deletion/C797S protein (EGFR d19/CS)
Chain of recombinant human EGFR exon 19 deletion/C797S double mutant protein (P00533 other isoform, or with tags, fused parts or gaps C797S/del 1-668/del 746-750 limits assumed): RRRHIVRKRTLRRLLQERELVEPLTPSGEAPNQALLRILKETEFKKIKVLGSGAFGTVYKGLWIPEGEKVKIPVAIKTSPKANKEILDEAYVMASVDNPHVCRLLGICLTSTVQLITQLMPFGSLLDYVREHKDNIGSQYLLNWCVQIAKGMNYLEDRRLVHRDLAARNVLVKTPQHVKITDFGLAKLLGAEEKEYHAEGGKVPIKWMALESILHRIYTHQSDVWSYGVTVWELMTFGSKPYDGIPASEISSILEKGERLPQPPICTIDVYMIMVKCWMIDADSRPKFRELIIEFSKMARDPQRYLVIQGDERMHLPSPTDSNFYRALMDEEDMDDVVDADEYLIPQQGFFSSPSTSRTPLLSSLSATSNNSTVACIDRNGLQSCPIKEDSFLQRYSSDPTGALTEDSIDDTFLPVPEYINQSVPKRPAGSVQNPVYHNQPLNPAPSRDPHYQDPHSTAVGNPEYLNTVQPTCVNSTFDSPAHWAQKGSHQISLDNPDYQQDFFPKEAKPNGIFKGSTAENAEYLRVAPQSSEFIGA
Outline: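 IC50 values were fitted with a 4-parameter model to reaction slopes taken from 90 kinetic reads spaced 120 s apart. The Phosphosens sensor/ATP working solution was 40 uM/4 mM, and compound was dosed as 16-point dilutions at 2.5% final DMSO.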

Ba/F3_EGFR WT cells = assay: Biological Activity Assay D: BaF3 cell proliferation assay, EGFR wild-type (BaF3 WT); type: cell-based; details: Ba/F3 EGFR, read-out: BaF3 WT IC50
[2] = BaF3_EGFR d19/CS cells, ~72 hours, CellTiter-Glo
[3] = BaF3_EGFR LR/CS cells, ~72 hours, CellTiter-Glo
[4] = Ba/F3_EGFR WT cells, ~72 hours, CellTiter-Glo

Compound: C[C@@H]1C[C@@H](n2cc(-c3ncnc4oc(-c5ccccc5)cc34)c(-c3ccc(F)cc3)n2)CN1S(C)(=O)=O [Example 189, 4-{3-(4-fluorophenyl)-1-[(3R,5R)-1-(methanesulfonyl)-5-methylpyrrolidin-3-yl]-1H-pyrazol-4-yl}-6-phenylfuro[2,3-d]pyrimidine]
- IC50 (BaF3_EGFR d19/CS cells; [2]): 5.86 nM
- IC50 (BaF3_EGFR LR/CS cells; [3]): 5.51 nM
- IC50 [1]: 0.26 nM
- IC50 (Ba/F3_EGFR WT cells; [4]): 132 nM

Compound: O=S1(=O)CC(n2cc(-c3ncnc4oc(-c5cccc(CN6CCOCC6)c5)cc34)c(-c3ccc(F)cc3)n2)C1 [Example 190, 3-[3-(4-fluorophenyl)-4-(6-{3-[(morpholin-4-yl)methyl]phenyl}furo[2,3-d]pyrimidin-4-yl)-1H-pyrazol-1-yl]-16-thietane-1,1-dione]
- IC50 (BaF3_EGFR d19/CS cells; [2]): 59.1 nM
- IC50 (BaF3_EGFR LR/CS cells; [3]): 64 nM
- IC50 [1]: 0.18 nM
- IC50 (Ba/F3_EGFR WT cells; [4]): 2160 nM

Compound: CC(=O)N1CC=C(c2nc3c(-c4cn(C5CS(=O)(=O)C5)nc4-c4ccc(F)cc4)ncnc3[nH]2)CC1 [Example 191, 3-{4-[8-(1-acetyl-1,2,3,6-tetrahydropyridin-4-yl)-9H-purin-6-yl]-3-(4-fluorophenyl)-1H-pyrazol-1-yl}-1λ6-thietane-1,1-dione]
- IC50 (BaF3_EGFR d19/CS cells; [2]): > 20000 nM
- IC50 (BaF3_EGFR LR/CS cells; [3]): > 20000 nM
- IC50 [1]: 0.65 nM
- IC50 (Ba/F3_EGFR WT cells; [4]): > 20000 nM

Compound: CS(=O)(=O)[C@H]1C[C@H](n2cc(-c3ncnc4oc(-c5ccccc5)cc34)c(-c3ccc(F)cc3)n2)C1 [Example 194, 4-{3-(4-fluorophenyl)-1-[(1r,3r)-3-(methanesulfonyl)cyclobutyl]-1H-pyrazol-4-yl}-6-phenylfuro[2,3-d]pyrimidine]
- IC50 (BaF3_EGFR d19/CS cells; [2]): 274 nM
- IC50 (BaF3_EGFR LR/CS cells; [3]): 175 nM
- IC50 [1]: 0.83 nM
- IC50 (Ba/F3_EGFR WT cells; [4]): 3610 nM

Compound: O=S1(=O)CC(n2cc(-c3ncnc4oc(-c5ncccn5)cc34)c(-c3ccc(F)cc3)n2)C1 [Example 195, 3-{3-(4-fluorophenyl)-4-[6-(pyrimidin-2-yl)furo[2,3-d]pyrimidin-4-yl]-1H-pyrazol-1-yl}-1λ6-thietane-1,1-dione]
- IC50 (BaF3_EGFR d19/CS cells; [2]): 365 nM
- IC50 (BaF3_EGFR LR/CS cells; [3]): 799 nM
- IC50 [1]: 6.89 nM
- IC50 (Ba/F3_EGFR WT cells; [4]): 6000 nM

Compound: O=S1(=O)CC(n2cc(-c3ncnc4oc(-c5ccncn5)cc34)c(-c3ccc(F)cc3)n2)C1 [Example 196, 3-{3-(4-fluorophenyl)-4-[6-(pyrimidin-4-yl)furo[2,3-d]pyrimidin-4-yl]-1H-pyrazol-1-yl}-1λ6-thietane-1,1-dione]
- IC50 (BaF3_EGFR d19/CS cells; [2]): 133 nM
- IC50 (BaF3_EGFR LR/CS cells; [3]): 212 nM
- IC50 [1]: 0.89 nM
- IC50 (Ba/F3_EGFR WT cells; [4]): 1740 nM

Compound: C[C@H]1C[C@H](n2cc(-c3ncnc4oc(-c5ccccc5)cc34)c(-c3ccc(F)cc3)n2)CN1S(C)(=O)=O [Example 197, 4-{3-(4-fluorophenyl)-1-[(3S,5S)-1-(methanesulfonyl)-5-methylpyrrolidin-3-yl]-1H-pyrazol-4-yl}-6-phenylfuro[2,3-d]pyrimidine]
- IC50 (BaF3_EGFR d19/CS cells; [2]): 46.5 nM
- IC50 (BaF3_EGFR LR/CS cells; [3]): 12.8 nM
- IC50 [1]: 0.45 nM
- IC50 (Ba/F3_EGFR WT cells; [4]): 139 nM

Compound: C[C@H]1C[C@@H](n2cc(-c3ncnc4oc(-c5ccccc5)cc34)c(-c3ccc(F)cc3)n2)CN1S(C)(=O)=O [Example 198, 4-{3-(4-fluorophenyl)-1-[(3R,5S)-1-(methanesulfonyl)-5-methylpyrrolidin-3-yl]-1H-pyrazol-4-yl}-6-phenylfuro[2,3-d]pyrimidine]
- IC50 (BaF3_EGFR d19/CS cells; [2]): 51.9 nM
- IC50 (BaF3_EGFR LR/CS cells; [3]): 17.9 nM
- IC50 [1]: 0.72 nM
- IC50 (Ba/F3_EGFR WT cells; [4]): 703 nM

Compound: Cn1cnc(-c2cc3c(-c4cn(C5CS(=O)(=O)C5)nc4-c4ccc(F)cc4)ncnc3o2)c1 [Example 200, 3-{3-(4-fluorophenyl)-4-[6-(1-methyl-1H-imidazol-4-yl)furo[2,3-d]pyrimidin-4-yl]-1H-pyrazol-1-yl}-16-thietane-1,1-dione]
- IC50 (BaF3_EGFR d19/CS cells; 72 h): 8.78 nM
- IC50 (BaF3_EGFR LR/CS cells; 72 h): 5.04 nM
- IC50 [1]: 0.13 nM
- IC50 (Ba/F3_EGFR WT cells; 72 h): 412 nM

Compound: Cn1ccnc1-c1cc2c(-c3cn(C4CS(=O)(=O)C4)nc3-c3ccc(F)cc3)ncnc2o1 [Example 201, 3-{3-(4-fluorophenyl)-4-[6-(1-methyl-1H-imidazol-2-yl)furo[2,3-d]pyrimidin-4-yl]-1H-pyrazol-1-yl}-1λ6-thietane-1,1-dione]
- IC50 (BaF3_EGFR d19/CS cells; [2]): 142 nM
- IC50 (BaF3_EGFR LR/CS cells; [3]): 200 nM
- IC50 [1]: 0.52 nM
- IC50 (Ba/F3_EGFR WT cells; [4]): 1580 nM

Compound: CC1(C)CC(n2cc(-c3ncnc4oc(-c5ccccc5)cc34)c(-c3ccc(F)cc3)n2)CCO1 (centres unmarked) [Example 202, 4-[1-(2,2-dimethyloxan-4-yl)-3-(4-fluorophenyl)-1H-pyrazol-4-yl]-6-phenylfuro[2,3-d]pyrimidine]
- IC50 (BaF3_EGFR d19/CS cells; [2]): 512 nM
- IC50 (BaF3_EGFR LR/CS cells; [3]): 219 nM
- IC50 [1]: 1.48 nM
- IC50 (Ba/F3_EGFR WT cells; [4]): 2350 nM

Compound: CN(c1cccc(-c2cc3c(-c4cn(C5CS(=O)(=O)C5)nc4-c4ccc(F)cc4)ncnc3o2)c1)S(C)(=O)=O [Example 203, N-(3-{4-[1-(1,1-dioxo-1λ6-thietan-3-yl)-3-(4-fluorophenyl)-1H-pyrazol-4-yl]furo[2,3-d]pyrimidin-6-yl}phenyl)-N-methylmethanesulfonamide]
- IC50 (BaF3_EGFR d19/CS cells; [2]): 17.1 nM
- IC50 (BaF3_EGFR LR/CS cells; [3]): 10.6 nM
- IC50 [1]: 0.14 nM
- IC50 (Ba/F3_EGFR WT cells; [4]): 289 nM

Compound: Fc1ccc(-c2nn(CC3CCC(F)(F)CC3)cc2-c2ncnc3oc(-c4ccccc4)cc23)cc1 [Example 204, 4-{1-[(4,4-difluorocyclohexyl)methyl]-3-(4-fluorophenyl)-1H-pyrazol-4-yl}-6-phenylfuro[2,3-d]pyrimidine]
- IC50 (BaF3_EGFR d19/CS cells; [2]): 1220 nM
- IC50 (BaF3_EGFR LR/CS cells; [3]): 288 nM
- IC50 [1]: 10.2 nM
- IC50 (Ba/F3_EGFR WT cells; [4]): 8130 nM

Compound: CN1CCN(Cc2cccc(-c3cc4c(-c5cn(C6CS(=O)(=O)C6)nc5-c5ccc(F)cc5)ncnc4o3)c2)CC1 [Example 205, 3-[3-(4-fluorophenyl)-4-(6-{3-[(4-methylpiperazin-1-yl)methyl]phenyl}furo[2,3-d]pyrimidin-4-yl)-1H-pyrazol-1-yl]-1λ6-thietane-1,1-dione]
- IC50 (BaF3_EGFR d19/CS cells; [2]): 49.7 nM
- IC50 (BaF3_EGFR LR/CS cells; [3]): 51 nM
- IC50 [1]: 0.11 nM
- IC50 (Ba/F3_EGFR WT cells; [4]): 1280 nM

Compound: O=S1(=O)CC(n2cc(-c3ncnc4oc(C#CC5CCC5)cc34)c(-c3ccc(F)cc3)n2)C1 [Example 206, 3-{4-[6-(cyclobutylethynyl)furo[2,3-d]pyrimidin-4-yl]-3-(4-fluorophenyl)-1H-pyrazol-1-yl}-1λ6-thietane-1,1-dione]
- IC50 (BaF3_EGFR d19/CS cells; [2]): 1110 nM
- IC50 (BaF3_EGFR LR/CS cells; [3]): 2500 nM
- IC50 [1]: 6.02 nM
- IC50 (Ba/F3_EGFR WT cells; [4]): > 20000 nM

Compound: Fc1ccc(-c2nn(C3CCCCC3(F)F)cc2-c2ncnc3oc(-c4ccccc4)cc23)cc1 (centres unmarked) [Example 207, 4-[1-(2,2-difluorocyclohexyl)-3-(4-fluorophenyl)-1H-pyrazol-4-yl]-6-phenylfuro[2,3-d]pyrimidine]
- IC50 (BaF3_EGFR d19/CS cells; [2]): 633 nM
- IC50 (BaF3_EGFR LR/CS cells; [3]): 140 nM
- IC50 [1]: 3.26 nM
- IC50 (Ba/F3_EGFR WT cells; [4]): 4390 nM

Compound: CC(=O)N1CCC=C(c2cc3c(-c4cn(CC(C)(C)O)nc4-c4ccc(F)cc4)ncnc3o2)C1 [Example 208, 1-[5-{4-[3-(4-fluorophenyl)-1-(2-hydroxy-2-methylpropyl)-1H-pyrazol-4-yl]furo[2,3-d]pyrimidin-6-yl}-3,6-dihydropyridin-1 (2H)-yl]ethan-1-one]
- IC50 (BaF3_EGFR d19/CS cells; [2]): 95.7 nM
- IC50 (BaF3_EGFR LR/CS cells; [3]): 155 nM
- IC50 [1]: 0.4 nM
- IC50 (Ba/F3_EGFR WT cells; [4]): 1680 nM

Compound: CC(=O)N1CCC=C(c2cc3c(-c4cn(C5CS(=O)(=O)C5)nc4-c4ccc(F)cc4)ncnc3o2)C1 [Example 209, 3-{4-[6-(1-acetyl-1,2,5,6-tetrahydropyridin-3-yl)furo[2,3-d]pyrimidin-4-yl]-3-(4-fluorophenyl)-1H-pyrazol-1-yl}-1λ6-thietane-1,1-dione]
- IC50 (BaF3_EGFR d19/CS cells; [2]): 160 nM
- IC50 (BaF3_EGFR LR/CS cells; [3]): 296 nM
- IC50 [1]: 0.44 nM
- IC50 (Ba/F3_EGFR WT cells; [4]): 1940 nM

Compound: C[C@@H]1C[C@H](n2cc(-c3ncnc4oc(-c5ccccc5)cc34)c(-c3ccc(F)cc3)n2)CN1S(C)(=O)=O [Example 212, 4-{3-(4-fluorophenyl)-1-[(3S,5R)-1-(methanesulfonyl)-5-methylpyrrolidin-3-yl]-1H-pyrazol-4-yl}-6-phenylfuro[2,3-d]pyrimidine]
- IC50 (BaF3_EGFR d19/CS cells; [2]): 5.28 nM
- IC50 (BaF3_EGFR LR/CS cells; [3]): 6.71 nM
- IC50 [1]: 0.37 nM
- IC50 (Ba/F3_EGFR WT cells; [4]): 87.8 nM

Compound: CS(=O)(=O)CCCn1cc(-c2ncnc3[nH]c(-c4ccccc4)nc23)c(-c2ccc(F)cc2)n1 [Example 215, 6-{3-(4-fluorophenyl)-1-[3-(methanesulfonyl)propyl]-1H-pyrazol-4-yl}-8-phenyl-9H-purine]
- IC50 (BaF3_EGFR d19/CS cells; [2]): 83.5 nM
- IC50 (BaF3_EGFR LR/CS cells; [3]): 30.8 nM
- IC50 [1]: 0.26 nM
- IC50 (Ba/F3_EGFR WT cells; [4]): 2340 nM

Compound: O=S1(=O)CC(n2cc(-c3ncnc4oc(-c5c[nH]cn5)cc34)c(-c3ccc(F)cc3)n2)C1 [Example 216, 3-{3-(4-fluorophenyl)-4-[6-(1H-imidazol-4-yl)furo[2,3-d]pyrimidin-4-yl]-1H-pyrazol-1-yl}-16-thietane-1,1-dione]
- IC50 (BaF3_EGFR d19/CS cells; [2]): 58.5 nM
- IC50 (BaF3_EGFR LR/CS cells; [3]): 31.1 nM
- IC50 [1]: 0.06 nM
- IC50 (Ba/F3_EGFR WT cells; [4]): 2130 nM

Compound: Cn1cncc1-c1cc2c(-c3cn(C4CS(=O)(=O)C4)nc3-c3ccc(F)cc3)ncnc2o1 [Example 217, 3-{3-(4-fluorophenyl)-4-[6-(1-methyl-1H-imidazol-5-yl)furo[2,3-d]pyrimidin-4-yl]-1H-pyrazol-1-yl}-16-thietane-1,1-dione]
- IC50 (BaF3_EGFR d19/CS cells; 72 h): 98.9 nM
- IC50 (BaF3_EGFR LR/CS cells; 72 h): 147 nM
- IC50 [1]: 0.276 nM
- IC50 (Ba/F3_EGFR WT cells; 72 h): 1240 nM

Compound: O=S1(=O)CC(n2cc(-c3ncnc4oc(-c5ccns5)cc34)c(-c3ccc(F)cc3)n2)C1 [Example 218, 3-{3-(4-fluorophenyl)-4-[6-(1,2-thiazol-5-yl)furo[2,3-d]pyrimidin-4-yl]-1H-pyrazol-1-yl}-1λ6-thietane-1,1-dione]
- IC50 (BaF3_EGFR d19/CS cells; [2]): 103 nM
- IC50 (BaF3_EGFR LR/CS cells; [3]): 158 nM
- IC50 [1]: 0.36 nM
- IC50 (Ba/F3_EGFR WT cells; [4]): 1440 nM
